Assay results: PMC12029662, “Cytotoxicity Comparison of ^99mTc-Labeled Peptide Antagonist and Agonist Targeting the SSTR2 Receptor in AR42J Cells” (Molecules, 2025)
Where two headings read alike, the source gives them in different places. Positions of bridges follow the written chain, without caps; N, C: chain ends. Non-standard residues stand in square brackets, D forms with d. dPhe(4-NHCONH2) = NC(=O)Nc1ccc(C[C@@H](N)C(=O)O)cc1; Phe(4-Cl) = N[C@@H](Cc1ccc(Cl)cc1)C(=O)O; N4 = N4 chelator for 99mTc

Legend:
SSTR2 = target: T1, SSTR2 (Rattus norvegicus, UniProt P30680); assay: Saturation binding affinity assay on AR-42-J cells; conditions: for Specific binding on AR42J cells, antagonist compared with agonist: specific = total minus nonspecific binding, Figure 2
T1 construct: AR-42-J cells were seeded in 6-well plates; host or cells: AR-42-J (AR42J) rat pancreatic tumour cells, intact, no transfection described
T1 sequence (P30680 whole entry): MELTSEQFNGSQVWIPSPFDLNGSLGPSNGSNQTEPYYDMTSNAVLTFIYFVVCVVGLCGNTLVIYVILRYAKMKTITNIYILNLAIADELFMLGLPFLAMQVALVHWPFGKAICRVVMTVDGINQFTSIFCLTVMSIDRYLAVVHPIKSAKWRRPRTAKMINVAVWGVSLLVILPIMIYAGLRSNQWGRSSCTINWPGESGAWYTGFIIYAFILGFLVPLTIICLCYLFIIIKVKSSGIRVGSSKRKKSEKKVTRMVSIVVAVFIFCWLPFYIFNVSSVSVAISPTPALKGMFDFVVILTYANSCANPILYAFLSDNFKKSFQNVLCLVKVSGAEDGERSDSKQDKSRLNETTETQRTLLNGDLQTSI
Method: Figure 2 illustrates the relationship between specific binding and the concentration of the radioconjugates. In Supplementary Materials Figure S1, we included experimental data on total binding and non-specific binding in the presence of a 2000-fold excess of octreotide, which allowed us to determine specific binding.
Following incubation, the cells were washed with PBS, collected into tubes and then lysed twice using 800 μL of 1 M NaOH (for 12-well plate) and 1.5 mL of 1 M NaOH (for 6-well plates). The lysates were collected in separate tubes and radioactivity was measured using Wizard2 gamma counter, PerkinElmer, Waltham, MA, USA. The lysates were transferred to separate tubes and radioactivity was quantified using Wizard2 gamma counter.

AR42J cells [1] = assay: Cytotoxicity studies (MTS assay)
Source text: The properties of agonist octreotide conjugates labeled with the radionuclide ^111In have been studied in several works, primarily for imaging but also for Auger electron therapy. The ^111In not only emits gamma quanta but also produces 7.4 Auger electrons. […] In a few works, Maecke et al. also studied ^111In radioconjugates with SSTR receptor antagonists, but these studies were focused on tumor imaging and the therapeutic effect was not investigated. […] They are easily repairable and the cells could continue to divide.
Figure 4 Cytotoxicity of ^99mTc-labeled SSTR2 receptor agonist TEKTROTYD (left graph) and antagonist TECANT-1 (right graph) for AR42J cells. The data results are expressed in mean ± standard deviation. One-way ANOVA analysis was used for multiple group comparisons, followed by Tukey’s test.
A cytotoxicity assay was performed using the AR42J cell line. A total of 10^4 cells were seeded in 96-well plate and incubated overnight at 37 °C in a 5% CO2 atmosphere. The following day, the medium was removed and the cells were treated with radiocompounds at concentrations of 100, 50, 25, 12.5 MBq/mL The cells were then incubated for 24, 48, and 72 h. At each specified time point, 20 µL of MTS reagent was added to cells and incubated for 2 h. Absorbance at 490 nm was measured to estimate the percentage of cell metabolic activity. […] The average absorbance of these control wells was subtracted from the absorbance of wells containing treated cells.

AR42J cells [2] = assay: Internalization assay (membrane-bound vs internalized fraction); format: cell-based, rat; conditions: Figure 3
Method: Briefly, AR42J cells (7 × 10^5 cells/well) were seeded in 6-well plates and incubated for 2 days. Following this incubation, the cells were washed twice with cold PBS and then treated with 5 nM of tested compounds. To avoid internalization, the cells were incubated at 4 °C for 1 h. Non-specific binding was assessed by adding a 1000-fold molar excess of unlabeled octreotide acetate. After incubation, unbound fraction was collected in tubes, and the cells were washed twice with 1 mL of cold PBS. Fresh medium was then added, and the cells were incubated at 37 °C for up to 24 h. At each time interval, the second medium portion was collected, and cells were washed twice with 1 mL of PBS. Next, the membrane-bound fraction was collected using 0.05 M glycine–HCl buffer (pH 2.8). Finally, the internalized fraction was obtained by lysing the cells with 1.5 mL of 1 M NaOH.

[3] = reported in multiple studies; cited from earlier work
[4] = AR42J cells, MTS, 12.5–100 MBq/mL, Figure 4

## ^99mTc-N4-p-Cl-Phe-cyclo(D-Cys-Tyr-D-4-amino-Phe(carbamoyl)-Lys-Thr-Cys)D-Tyr- NH2 (disulfide) ({99mTc-N4}-[Phe(4-Cl)][dC]Y[dPhe(4-NHCONH2)]KTC[dY]-NH2; disulfide 2-7; also: 99mTc complex via N4 chelator) [^99mTc-TECANT-1]
SSTR2; saturation curves, AR42J cells, 2 h incubation with 0.004–20 nM radiopeptide, non-specific binding with 2000-fold excess of octreotide, gamma counter
  Kd: 1.5 nM

## N4-p-Cl-Phe-cyclo(D-Cys-Tyr-DAph(Cbm)-Lys-Thr-Cys)-D-Tyr-NH2 (disulfide) [TECANT-1]
SSTR2
  Specific binding on AR42J cells, antagonist compared with agonist: significantly greater
AR42J cells [1]; [4]
  Cell viability after 72 h compared with earlier time points: no such effect was observed

## ^99mTc-N4-p-Cl-Phe-cyclo(D-Cys-Tyr-D-4-amino-Phe(carbamoyl)-Lys-Thr-Cys)D-Tyr- NH2 (disulfide) [^99mTc-TECANT-1]
SSTR2
  Specific binding on AR42J cells, antagonist compared with agonist: greater binding
AR42J cells [2]
  Cellular localization in words: most of the radioconjugate is accumulated in the cell membrane
AR42J cells [1]
  Cytotoxicity in words: significantly enhanced cytotoxic effect
AR42J cells [1]; AR42J cells, MTS, 12.5–100 MBq/mL, 24, 48, 72 h, Figure 4
  Toxicity of antagonist relative to agonist: two to three times higher

## ^99mTc-EDDA/HYNIC-3Tyr-octreotide (disulfide) [^99mTc-TEKTROTYD]
AR42J cells [1]; AR42J cells, MTS assay
  Cytotoxicity in words: slight cytotoxicity
AR42J cells [1]; [4]
  Cell viability after 72 h compared with earlier time points: significant increase in cell viability observed after 72 h
[3]
  Stability in biological fluids, including human serum: high stability
